What follows are compounds tested on TNF-α (assay: Lipopolysaccharide-activated THP1 cell TNF production assay (LPS induced TNF release)). Settings: Homo sapiens, THP-1; THP1 cells, bacterial LPS, secreted TNF-α after 3 h at 37° C.
Type: cell-based
Experimental: Lipopolysaccharide-Activated THP1 Cell TNF Production Assay
THP1 cells are resuspended in fresh THP1 media (RPMI 1640, 10% heat-inactivated FBS, 1XPGS, 1XNEAA, plus 30 μM βME) at a concentration of 1E6/mL. One hundred microliters of cells per well are plated in a polystyrene 96-well tissue culture. One microgram per mL of bacterial LPS is prepared in THP1 media and is transferred to the wells. Test compounds are dissolved in 100% DMSO and are serially diluted 3 fold in a polypropylene 96-well microtiter plate (drug plate). HI control and LO control wells contain only DMSO. One microliter of test compound from the drug plate followed by 10 μL of LPS are transferred to the cell plate. The treated cells are induced to synthesize and secrete TNF-α at 37° C. for 3 h. Forty microliters of conditioned media are transferred to a 96-well polypropylene plate containing 110 μL of ECL buffer (50 mM Tris-HCl pH 8.0, 100 mM NaCl, 0.05% Tween 20, 0.05% NaN3 and 1% FBS) supplemented with 0.44 nM MAB610 monoclonal Ab (R&D Systems), 0.34 nM ruthenylated AF210NA polyclonal Ab (R&D Systems) and 44 μg/mL sheep anti-mouse M280 Dynabeads (Dynal). After a 2 h incubation at room temperature with shaking, the reaction is read on the ECL M8 Instrument (IGEN Inc.). A low voltage is applied to the ruthenylated TNF-α immune complexes, which in the presence of TPA (the active component in Origlo), results in a cyclical redox reaction generating light at […]. The amount of secreted TNF-α: in the presence of compound compared with that in the presence of DMSO vehicle alone (HI control) is calculated using the formula:% control (POC)=(cpd−average LO)/(average HI−average LO)*100. Data (consisting of POC and inhibitor concentration in μM) is fitted to a 4-parameter equation (y=A+((B−A)/(1+((x/C)ˆD))), where A is the minimum y (POC) value, B is the maximum y (POC), C is the x (cpd concentration) at the point of inflection and D is the slope factor) using a Levenburg-Marquardt non-linear regression algorithm.
`CC(Cc1cccc(C(C)N)c1)Nc1nccc(N(C)c2nc(-c3ccccc3)cc3ncnn23)n1` (stereo not drawn) [N^2-{2-[3-(1-amino-ethyl)-phenyl]-1-methyl-ethyl}-N^4-methyl-N^4-(7-phenyl-[1,2,4]triazolo[1,5-c]pyrimidine-5-yl)-pyrimidine-2,4-diamine] gave an IC50 of at most 20 µM.
In the case of `c1ccc(CCNc2nccc(Nc3nc(-c4ccccc4)cc4ncnn34)n2)cc1` [Example 4, N^2-phenethyl-N^4-(7-phenyl-[1,2,4]triazolo[1,5-c]pyrimidine-5-yl)-pyrimidine-2,4-diamine], the IC50 is reported as at most 20 µM.
Work on `C[C@@H](Cc1cccc(S(N)(=O)=O)c1)Nc1nccc(N(C)c2nc(-c3ccccc3)cc3ncnn23)n1` yielded an IC50 of at most 20 µM.
Work on `CN(c1ccnc(NC2CCN(C(=O)OC(C)(C)C)CC2)n1)c1nc(-c2ccccc2)cc2ncnn12` [4-{4-[methyl-(7-phenyl-[1,2,4]triazolo[1,5-c]pyrimidin-5-yl)-amino]-pyrimidin-2-ylamino}-piperidine-1-carboxylic acid tert-butyl ester] yielded an IC50 of at most 20 µM.
For `CC(Cc1cccc(CN)c1)Nc1nccc(N(C)c2nc(-c3ccccc3)cc3ncnn23)n1` (stereo not drawn) [N^2-[2-(3-aminomethyl-phenyl)-1-methyl-ethyl]-N^4-methyl-N^4-(7phenyl-[1,2,4]triazolo[1,5-c]pyrimidin-5-yl)-pyrimidine-2,4-diamine], the IC50 was at most 20 µM.
With `CC(Cc1ccccc1)Nc1nccc(Nc2nc(-c3ccccc3)cc3ncnn23)n1` (stereo not drawn) [N^2-(1-methyl-2-phenyl-ethyl)-N^4-(7-phenyl-[1,2,4]triazolo[1,5-c]pyrimidine-5-yl)-pyrimidine-2,4-diamine] the IC50 was at most 20 µM.
Compound `C[C@@H](Cc1cccc(CO)c1)Nc1nccc(N(C)c2nc(-c3ccccc3)cc3ncnn23)n1` [(S)-[3-(2-{4-[methyl-(7-phenyl-[1,2,4]triazolo[1,5-c]pyrimidine-5-yl)-amino]-pyrimidin-2-ylamino}-propyl)-phenyl]-methanol] has an IC50 of at most 20 µM.
`Cc1cc(N(C)c2nc(-c3ccccc3)cc3ncnn23)nc(N[C@@H](C)Cc2cccc(CN)c2)n1` was tested, and the IC50 was at most 20 µM.
`C[C@@H](Cc1cccc(S(=O)(=O)N(C)CCN(C)C)c1)Nc1nccc(N(C)c2nc(-c3ccccc3)cc3ncnn23)n1` showed an IC50 of at most 20 µM.
Work on `CC(Cc1cccc(CO)c1)Nc1nccc(N(C)c2nc(-c3ccccc3)cc3ncnn23)n1` (stereo not drawn) [[3-(2-{4-[methyl-(7-phenyl-[1,2,4]triazolo[1,5-c]pyrimidine-5-yl)-amino]-pyrimidin-2-ylamino}-propyl)-phenyl]-methanol] yielded an IC50 of at most 20 µM.
`C[C@@H](Cc1cccc(CN)c1)Nc1nccc(N(C)c2nc(-c3ccccc3)cc3ncnn23)n1` [(S)-N^2-[2-(3-aminomethyl-phenyl)-1-methyl-ethyl]-N^4-methyl-N^4-(7-phenyl-[1,2,4]triazolo[1,5-c]pyrimidin-5-yl)-pyrimidine-2,4-diamine] gave an IC50 of at most 20 µM.
With `CC(Cc1cccc(CO)c1)Nc1nccc(N(C)c2nc(-c3ccccc3)cc3nccn23)n1` (stereo not drawn) [[3-(2-{4-[Methyl-(7-phenyl-imidazo[1,2-c]pyrimidin-5-yl)-amino]-pyrimidin-2-ylamino}-propyl)-phenyl]-methanol] the IC50 was at most 20 µM.
`C[C@@H](Cc1ccccc1)Nc1nccc(N(C)c2nc(-c3ccccc3)cc3ncnn23)n1` [Example 10, N^4-methyl-N^2-(S)-(1-methyl-2-phenyl-ethyl)-N^4-(7-phenyl-[1,2,4]triazolo[1,5-c]pyrimidine-5-yl)-pyrimidine-2,4-diamine] showed an IC50 of at most 20 µM.
`CC(Cc1cccc(CN)c1)Nc1nccc(N(C)c2cc(-c3ccccc3)cc3ncnn23)n1` (stereo not drawn) [N^2-[2-(3-Aminomethyl-phenyl)-1-methyl-ethyl]-N^4-methyl-N^4-(7-phenyl-[1,2,4]triazolo[1,5-a]pyridin-5-yl)-pyrimidine-2,4-diamine] gave an IC50 of at most 20 µM.
For `C[C@H](Nc1nccc(Nc2nc(-c3ccccc3)cc3ncnn23)n1)c1ccccc1` [Example 7, (S)—N^2-(1-phenyl-ethyl)-N^4-(7-phenyl-[1,2,4]triazolo[1,5-c]pyrimidine-5-yl)-pyrimidine-2,4-diamine], the IC50 was at most 20 µM.
`CC(Cc1cccc(CN)c1)Nc1nccc(N(C)c2nc(-c3ccccc3)cc3nccn23)n1` (stereo not drawn) [N2-[2-(3-Aminomethyl-phenyl)-1-methyl-ethyl]-N4-methyl-N4-(7-phenyl-imidazo[1,2-c]pyrimidin-5-yl)-pyrimidine-2,4-diamine] showed an IC50 of at most 20 µM.
`C[C@@H](Nc1nccc(Nc2nc(-c3ccccc3)cc3ncnn23)n1)c1ccccc1` [(R)-N^2-(1-Phenyl-ethyl)-N^4-(7-phenyl-[1,2,4]triazolo[1,5-c]pyrimidine-5-yl)-pyrimidine-2,4-diamine] gave an IC50 of at most 20 µM.
For `Cc1cc(N(C)c2nc(-c3ccccc3)cc3ncnn23)nc(N[C@@H](C)Cc2cccc([C@@H](C)N)c2)n1` [Example 35], the IC50 was at most 20 µM.
